Numbered stars: 1 amine (or outer) side, 2 acyl side, 3 side chain; on linkers, the order of the positions; unused ones are H or OH. Bridge positions count the residues as written; N and C are the ends. Square brackets hold non-standard residues; d marks the D form. Peptide text beside a SMILES is read from it. * marks the point of attachment. Phe(4-COOH) = N[C@@H](Cc1ccc(C(=O)O)cc1)C(=O)O; Bip = N[C@@H](Cc1ccc(-c2ccccc2)cc1)C(=O)O; Phe(3-OMe) = COc1cccc(C[C@H](N)C(=O)O)c1; Phe(4-CN) = N#Cc1ccc(C[C@H](N)C(=O)O)cc1; Phe(3-Me) = Cc1cccc(C[C@H](N)C(=O)O)c1; γGlu = O=C(O)[C@H](CCC(=O)[*:2])N[*:1]; βAsp = O=C(O)[C@H](CC(=O)[*:2])N[*:1]; Val(3-OH) = CC(C)(O)[C@H](N)C(=O)O; Cha = N[C@@H](CC1CCCCC1)C(=O)O; Cit = NC(=O)NCCC[C@H](N)C(=O)O; Carboxymethyl = O=C(O)C*; Orn = NCCC[C@H](N)C(=O)O; Aun = NCCCCCCCCCCC(=O)O; Dab = NCC[C@H](N)C(=O)O; Dap = NC[C@H](N)C(=O)O; AEEA = NCCOCCOCC(=O)O
Biological target: T1, PD-1/PD-L1 interaction (PE-labeled human PD-L1-Ig binding to Jurkat cell line over-expressing human PD-1) (Homo sapiens, UniProt Q15116)
T1 construct: expressed in transfected cells; host or cells: Jurkat
T1 sequence (Q15116 25-288): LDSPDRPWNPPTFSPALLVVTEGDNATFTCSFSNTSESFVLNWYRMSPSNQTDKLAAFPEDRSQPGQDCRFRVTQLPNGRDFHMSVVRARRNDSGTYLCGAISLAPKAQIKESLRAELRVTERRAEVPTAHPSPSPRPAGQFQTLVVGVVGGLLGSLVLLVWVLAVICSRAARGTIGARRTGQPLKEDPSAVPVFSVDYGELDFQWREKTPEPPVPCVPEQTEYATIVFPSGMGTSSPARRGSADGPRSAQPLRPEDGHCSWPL
Test: Jurkat-PD-1 Cell Binding High-Content Screening Assay (CBA)
Assay type: cell-based
Details: Jurkat cell line over-expressing human PD-1; PE-labeled PD-L1-Ig 20 nM final; read-out: Jurkat hPD1-PDL1 IC50
Experimental: Example 2: Jurkat-PD-1 Cell Binding High-Content Screening Assay (CBA)
Phycoerythrin (PE) was covalently linked to the Ig epitope tag of human PD-L1-Ig and fluorescently-labeled PD-L1-Ig was used for binding studies with a Jurkat cell line over-expressing human PD-1 (Jurkat-PD-1). Briefly, 8×10^3 Jurkat-hPD-1 cells were seeded into 384 well plates in 20 μl of DMEM supplemented with 10% fetal calf serum. 100 nl of compound was added to cells followed by incubation at 37° C. for 2 h. Then, 5 μl of PE-labeled PD-L1-Ig (20 nM final), diluted in DMEM supplemented with 10% fetal calf serum. After 1 hour incubation, cells were fixed with 4% paraformaldehyde in dPBS containing 10 μg/ml Hoechst 33342 and then washed 3× in 100 μl dPBS. Data was collected and processed using a Cell Insight NXT High Content Imager and associated software.

## Cc1cccc(C[C@@H]2NC(=O)[C@H](CC(=O)O)NC(=O)[C@H](Cc3ccc(OCC(=O)O)cc3)NC(=O)[C@H](CN)NC(=O)CSC[C@@H](C(=O)N[C@@H](CCN)C(=O)NCCCCCCCCCCCCC(=O)O)NC(=O)[C@H](C(C)O)NC(=O)[C@H](C(C)C)NC(=O)[C@H](CC3CCCCC3)NC(=O)[C@H](CCN)NC(=O)[C@@H](CC(C)C)NC(=O)[C@H](CCCN)NC(=O)[C@H](CCCNC(N)=O)NC(=O)[C@H](Cc3ccc(-c4ccccc4)cc3)NC(=O)[C@H](C(C)C)NC2=O)c1 (mixture of isomers) [Compound 3126]
  IC50: 68.6 nM

## Cc1cccc(C[C@@H]2NC(=O)[C@H](CC(=O)O)NC(=O)[C@H](Cc3ccc(OCC(=O)O)cc3)NC(=O)[C@H](CN)NC(=O)CSC[C@@H](C(=O)N[C@@H](C)C(=O)N[C@@H](CCC(=O)O)C(=O)NCC(=O)NCCCCCCCCCCC(=O)O)NC(=O)[C@H]([C@@H](C)O)NC(=O)[C@H](C(C)C)NC(=O)[C@H](CC3CCCCC3)NC(=O)[C@H](CCN)NC(=O)[C@@H](CC(C)C)NC(=O)[C@H](CCCN)NC(=O)[C@H](CCCNC(N)=O)NC(=O)[C@H](Cc3ccc(-c4ccccc4)cc3)NC(=O)[C@H](C(C)C)NC2=O)c1 [Compound 1000] ({CH2CO}-[Dap]Y(Carboxymethyl)D[Phe(3-Me)]V[Bip][Cit][Orn][dL][Dab][Cha]VTCAEG[Aun]-OH; thioether N-14)
  IC50: 5.5 nM

## COc1cccc(C[C@@H]2NC(=O)[C@H](CC(=O)O)NC(=O)[C@H](Cc3ccc(OCC(=O)O)cc3)NC(=O)[C@H](CN)NC(=O)CSC[C@@H](C(=O)N[C@@H](CCN)C(=O)NCCOCCOCC(=O)NCCCCCCCCCCC(=O)O)NC(=O)[C@H](CCCN)NC(=O)[C@H](C(C)C)NC(=O)[C@H](CC3CCCCC3)NC(=O)[C@H](CCN)NC(=O)[C@@H](CC(C)C)NC(=O)[C@H](CCCN)NC(=O)[C@H](Cc3ccc(O)cc3)NC(=O)[C@H](Cc3ccc(-c4ccccc4)cc3)NC(=O)[C@H](Cc3ccc(OCC(=O)O)cc3)NC2=O)c1 [Compound 1001] ({CH2CO}-[Dap]Y(Carboxymethyl)D[Phe(3-OMe)]Y(Carboxymethyl)[Bip]Y[Orn][dL][Dab][Cha]V[Orn]C[Dab][AEEA][Aun]-OH; thioether N-14)
  IC50: 7.2 nM

## Cc1cccc(C[C@@H]2NC(=O)[C@H](CC(=O)O)NC(=O)[C@H](Cc3ccc(OCC(=O)O)cc3)NC(=O)[C@H](CN)NC(=O)CSC[C@@H](C(=O)N[C@@H](C)C(=O)N[C@@H](CC(=O)O)C(=O)NCC(=O)NCCCCCCCCCCC(=O)O)NC(=O)[C@H]([C@@H](C)O)NC(=O)[C@H](C(C)C)NC(=O)[C@H](CC3CCCCC3)NC(=O)[C@H](CCN)NC(=O)[C@@H](CC(C)C)NC(=O)[C@H](CCCN)NC(=O)[C@H](CCCNC(N)=O)NC(=O)[C@H](Cc3ccc(-c4ccccc4)cc3)NC(=O)[C@H](C(C)C)NC2=O)c1 [Compound 1002] ({CH2CO}-[Dap]Y(Carboxymethyl)D[Phe(3-Me)]V[Bip][Cit][Orn][dL][Dab][Cha]VTCADG[Aun]-OH; thioether N-14)
  IC50: 6 nM

## Cc1cccc(C[C@@H]2NC(=O)[C@H](CC(=O)O)NC(=O)[C@H](Cc3ccc(C(=O)O)cc3)NC(=O)[C@H](Cc3ccc(C#N)cc3)NC(=O)CSC[C@@H](C(=O)N[C@@H](CCN)C(=O)NCCCCCCCCCCC(=O)O)NC(=O)[C@H](CO)NC(=O)[C@H](C(C)(C)O)NC(=O)[C@H](CC3CCCCC3)NC(=O)[C@H](CCN)NC(=O)[C@@H](CC(C)C)NC(=O)[C@H](CCCN)NC(=O)[C@H](Cc3ccc(OCC(=O)O)cc3)NC(=O)[C@H](Cc3ccc(-c4ccccc4)cc3)NC(=O)[C@H](Cc3ccc(OCC(=O)O)cc3)NC2=O)c1 [Compound 1003] ({CH2CO}-[Phe(4-CN)][Phe(4-COOH)]D[Phe(3-Me)]Y(Carboxymethyl)[Bip]Y(Carboxymethyl)[Orn][dL][Dab][Cha][Val(3-OH)]SC[Dab][Aun]-OH; thioether N-14)
  IC50: 14.8 nM

## Cc1cccc(C[C@@H]2NC(=O)[C@H](CC(=O)O)NC(=O)[C@H](Cc3ccc(OCC(=O)O)cc3)NC(=O)[C@H](CN)NC(=O)CSC[C@@H](C(=O)N[C@@H](C)C(=O)N[C@@H](CCC(=O)O)C(=O)NCCOCCOCC(=O)NCCCCCCCCCCC(=O)O)NC(=O)[C@H]([C@@H](C)O)NC(=O)[C@H](C(C)C)NC(=O)[C@H](CC3CCCCC3)NC(=O)[C@H](CCN)NC(=O)[C@@H](CC(C)C)NC(=O)[C@H](CCCN)NC(=O)[C@H](CCCNC(N)=O)NC(=O)[C@H](Cc3ccc(-c4ccccc4)cc3)NC(=O)[C@H](C(C)C)NC2=O)c1 [Compound 1004] ({CH2CO}-[Dap]Y(Carboxymethyl)D[Phe(3-Me)]V[Bip][Cit][Orn][dL][Dab][Cha]VTCAE[AEEA][Aun]-OH; thioether N-14)
  IC50: 2.6 nM

## Cc1cccc(C[C@@H]2NC(=O)[C@H](CC(=O)O)NC(=O)[C@H](Cc3ccc(OCC(=O)O)cc3)NC(=O)[C@H](CN)NC(=O)CSC[C@@H](C(=O)N[C@@H](C)C(=O)N[C@@H](CCC(=O)O)C(=O)NCCCCCCCCCCC(=O)O)NC(=O)[C@H]([C@@H](C)O)NC(=O)[C@H](C(C)C)NC(=O)[C@H](CC3CCCCC3)NC(=O)[C@H](CCN)NC(=O)[C@@H](CC(C)C)NC(=O)[C@H](CCCN)NC(=O)[C@H](CCCNC(N)=O)NC(=O)[C@H](Cc3ccc(-c4ccccc4)cc3)NC(=O)[C@H](C(C)C)NC2=O)c1 [Compound 1005] ({CH2CO}-[Dap]Y(Carboxymethyl)D[Phe(3-Me)]V[Bip][Cit][Orn][dL][Dab][Cha]VTCAE[Aun]-OH; thioether N-14)
  IC50: 1.1 nM

## Cc1cccc(C[C@@H]2NC(=O)[C@H](CC(=O)O)NC(=O)[C@H](Cc3ccc(OCC(=O)O)cc3)NC(=O)[C@H](CN)NC(=O)CSC[C@@H](C(=O)N[C@@H](C)C(=O)N[C@@H](CC(=O)O)C(=O)NCCCCCCCCCCC(=O)O)NC(=O)[C@H]([C@@H](C)O)NC(=O)[C@H](C(C)C)NC(=O)[C@H](CC3CCCCC3)NC(=O)[C@H](CCN)NC(=O)[C@@H](CC(C)C)NC(=O)[C@H](CCCN)NC(=O)[C@H](CCCNC(N)=O)NC(=O)[C@H](Cc3ccc(-c4ccccc4)cc3)NC(=O)[C@H](C(C)C)NC2=O)c1 [Compound 1006] ({CH2CO}-[Dap]Y(Carboxymethyl)D[Phe(3-Me)]V[Bip][Cit][Orn][dL][Dab][Cha]VTCAD[Aun]-OH; thioether N-14)
  IC50: 9.2 nM

## Cc1cccc(C[C@@H]2NC(=O)[C@H](CC(=O)O)NC(=O)[C@H](Cc3ccc(OCC(=O)O)cc3)NC(=O)[C@H](CN)NC(=O)CSC[C@@H](C(=O)N[C@@H](C)C(=O)NCCOCCOCC(=O)N[C@@H](CCC(=O)O)C(=O)NCCCCCCCCCCC(=O)O)NC(=O)[C@H]([C@@H](C)O)NC(=O)[C@H](C(C)C)NC(=O)[C@H](CC3CCCCC3)NC(=O)[C@H](CCN)NC(=O)[C@@H](CC(C)C)NC(=O)[C@H](CCCN)NC(=O)[C@H](CCCNC(N)=O)NC(=O)[C@H](Cc3ccc(-c4ccccc4)cc3)NC(=O)[C@H](C(C)C)NC2=O)c1 [Compound 1007] ({CH2CO}-[Dap]Y(Carboxymethyl)D[Phe(3-Me)]V[Bip][Cit][Orn][dL][Dab][Cha]VTCA[AEEA]E[Aun]-OH; thioether N-14)
  IC50: 7.9 nM

## Cc1cccc(C[C@@H]2NC(=O)[C@H](CC(=O)O)NC(=O)[C@H](Cc3ccc(OCC(=O)O)cc3)NC(=O)[C@H](CN)NC(=O)CSC[C@@H](C(=O)N[C@@H](C)C(=O)N[C@@H](CC(=O)O)C(=O)NCCOCCOCC(=O)NCCCCCCCCCCC(=O)O)NC(=O)[C@H]([C@@H](C)O)NC(=O)[C@H](C(C)C)NC(=O)[C@H](CC3CCCCC3)NC(=O)[C@H](CCN)NC(=O)[C@@H](CC(C)C)NC(=O)[C@H](CCCN)NC(=O)[C@H](CCCNC(N)=O)NC(=O)[C@H](Cc3ccc(-c4ccccc4)cc3)NC(=O)[C@H](C(C)C)NC2=O)c1 [Compound 1008] ({CH2CO}-[Dap]Y(Carboxymethyl)D[Phe(3-Me)]V[Bip][Cit][Orn][dL][Dab][Cha]VTCAD[AEEA][Aun]-OH; thioether N-14)
  IC50: 10.5 nM

## Cc1cccc(C[C@@H]2NC(=O)[C@H](CC(=O)O)NC(=O)[C@H](Cc3ccc(OCC(=O)O)cc3)NC(=O)[C@H](CN)NC(=O)CSC[C@@H](C(=O)N[C@@H](C)C(=O)N[C@@H](CC(=O)NCCOCCOCC(=O)NCCCCCCCCCCC(=O)O)C(=O)O)NC(=O)[C@H]([C@@H](C)O)NC(=O)[C@H](C(C)C)NC(=O)[C@H](CC3CCCCC3)NC(=O)[C@H](CCN)NC(=O)[C@@H](CC(C)C)NC(=O)[C@H](CCCN)NC(=O)[C@H](CCCNC(N)=O)NC(=O)[C@H](Cc3ccc(-c4ccccc4)cc3)NC(=O)[C@H](C(C)C)NC2=O)c1 [Compound 1010] ({CH2CO}-[Dap]Y(Carboxymethyl)D[Phe(3-Me)]V[Bip][Cit][Orn][dL][Dab][Cha]VTCA[βAsp][AEEA][Aun]-OH; thioether N-14)
  IC50: 6.3 nM

## Cc1cccc(C[C@@H]2NC(=O)[C@H](CC(=O)O)NC(=O)[C@H](Cc3ccc(OCC(=O)O)cc3)NC(=O)[C@H](CN)NC(=O)CSC[C@@H](C(=O)N[C@@H](C)C(=O)N[C@@H](CCC(=O)NCC(=O)NCCCCCCCCCCC(=O)O)C(=O)O)NC(=O)[C@H]([C@@H](C)O)NC(=O)[C@H](C(C)C)NC(=O)[C@H](CC3CCCCC3)NC(=O)[C@H](CCN)NC(=O)[C@@H](CC(C)C)NC(=O)[C@H](CCCN)NC(=O)[C@H](CCCNC(N)=O)NC(=O)[C@H](Cc3ccc(-c4ccccc4)cc3)NC(=O)[C@H](C(C)C)NC2=O)c1 [Compound 1011] ({CH2CO}-[Dap]Y(Carboxymethyl)D[Phe(3-Me)]V[Bip][Cit][Orn][dL][Dab][Cha]VTCA[γGlu]G[Aun]-OH; thioether N-14)
  IC50: 8.8 nM

Reference: US20260022142A1, “MACROCYCLIC IMMUNOMODULATORS” (Bristol-Myers Squibb Company, priority 2022, published 2026)
